Molecules are shown by their SMILES. Several values for one entry are separate records, joined by “and”; a condition that tells them apart may be missing. Identical values can stand only once. Like-named read-outs stand apart in the source and are kept apart here.

One data set addresses T1, RXR-VDR heterodimer (Homo sapiens, UniProt P11473).
T1 construct: Add the Gal-4-RXR-DEF and VP16-VDR-LBD; expressed in transfected cells; host or cells: SaOs-2 cells
T1 sequence (P11473 127-423 limits assumed): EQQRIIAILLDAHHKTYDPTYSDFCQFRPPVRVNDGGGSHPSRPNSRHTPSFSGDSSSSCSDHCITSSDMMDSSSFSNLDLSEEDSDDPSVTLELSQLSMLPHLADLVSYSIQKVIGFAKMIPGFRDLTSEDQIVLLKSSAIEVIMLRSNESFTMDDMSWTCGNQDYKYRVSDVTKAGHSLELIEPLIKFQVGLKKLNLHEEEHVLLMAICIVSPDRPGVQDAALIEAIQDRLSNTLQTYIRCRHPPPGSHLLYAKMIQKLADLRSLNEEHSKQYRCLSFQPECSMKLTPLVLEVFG
T1 sequence (P19793 201-462 partner limits assumed): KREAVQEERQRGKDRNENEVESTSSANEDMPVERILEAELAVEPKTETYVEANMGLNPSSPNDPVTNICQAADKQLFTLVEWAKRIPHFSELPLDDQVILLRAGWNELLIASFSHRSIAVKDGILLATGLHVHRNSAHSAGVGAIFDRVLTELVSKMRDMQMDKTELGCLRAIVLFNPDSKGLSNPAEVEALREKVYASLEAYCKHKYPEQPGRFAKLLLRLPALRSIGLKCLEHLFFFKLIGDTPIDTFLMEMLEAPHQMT
Nature of the data set: RXR-VDR heterodimerization assay (SaOS-2 cells). As to conditions: luciferase reporter, Table 1. It counts as cell-based. The source says:
1. The RXR-VDR Heterodimer Assay:
This assay provides the VDR activity of a test compound.
(1) Materials and Method for RXR-VDR Heterodimerization Assay:
Transfection/Treatment Media: • D-MEM Low Glucose Without Phenol Red only
Flat well Plates: • Use well plate to plate cells • Use Deep well plate sterile to make up treatment media.
Luciferase Assay Reagent: • Use Steady-Glo Luciferase Reagent from Promega (Cat #E2550) Consists of: • a. E2533 Assay Substrate, lyopholized product and • b. E2543 Assay Buffer. • Thaw at room temperature • Store Day 1: Cell Plating: • Cell Harvesting • Aspirate media from culture flask, rinse cells with HBSS and aspirate. • Add trypsin and incubate. • When cells appear detached, resuspend cells in growth media. • Transfer into a new flask with fresh growth media for passaging the cells. • Plate well plates and two extra plates A. Cell Count • Mix the cell suspension using pipette • Use Hematocytometer to count the cells • Load cell suspension onto the hemocytometer chamber • Count cells.
Step 1: DNA and Media • Add plain DMEM media to tubes for mixing the DNA • Add the Reporter gene pFR-LUC • Add the Gal-4-RXR-DEF and VP16-VDR-LBD
Step 2: FuGENE and Media • Prepare plain DMEM media in a ubes for mixing PuGENE • Add FuGENE 6 Transection Reagent • Incubate
Step 3: FuGENE, DNA and Media Complex • Add FuGENE Media complex from step 2 to DNA Media complex from step1 • Incubate
Step 4: FuGENE, DNA and Media Complex to-well plate • Add FuGENE-DNA-Media complex from step 3 to each plate • Incubate. […] Day 4: Luciferase Assay • Read the plates after drug treatment • Remove part of media from all the wells and leave remainder • Add Steady-Glo Luciferase Reagent mixture/wells • Incubate • Count each well using a Luminescence counter, Top Count NXT by Packard Set a delay between plates to reduce the background. (2) Materials and Method for The Caco-2 Cell Assay: […]
(Reporter assays use an easily measured gene product as a stand-in for the process of interest.)

The subject of a further data set is rat osteocalcin promoter. The data set can be described thus: OCN (osteocalcin) promoter assay. As to conditions: RG-15 (ROS 17/2.8) cells, 48 hr treatment, Table 1. It counts as cell-based. As to the method: 3. The OCN (osteocalcin) Promoter Assay
The OCN Promoter Assay is an indicator and marker for osteoporosis. […] Preferred assay results are less than 50 nM.
(3) Materials and Method for The OCN Promoter Assay:
The activation of osteocalcin by VDR ligands was evaluated in a rat osteoblast-like cell line RG-15 (ROS 17/2.8) stably expressing rat osteocalcin promoter fused with luciferase reporter gene. […] After 24 hr, cells (in DMEM/F-12 medium +2% FBS) were treated with various concentrations of compounds, dissolved in DMSO. The final DMSO concentration remained at 0.01% (v/v). After 48 hr treatment, the medium was removed, cells were lysed with 50 μl of lysis buffer (From Luciferase reporter assay system, Roche Diagnostics, Indianapolis, Ind.) and assayed for luciferase activity using the Luciferase Reporter Gene Assay kit from Boehringer Mannheim as per manufacturer's specifications.

In a further data set the test system is KERtr cells. Nature of the data set: Keratinocyte proliferation assay. It counts as cell-based, Human. As to conditions: BrdU incorporation. As to the method: 5. The Keratinocyte Proliferation Assay
This Assay is indicative for the treatment of psoriasis.
(5) The Keratinocyte Proliferation Assay:
KERtr cells (Human skin keratinocyte transformed with a retrovirus vector, obtained from ATCC) were plated in 96-well flat-bottomed plates (3000 cells/well) in 100 μl keratinocyte serum free medium supplemented with bovine pituitary extract in the absence of EGF (Life Technologies, Rockville, Md.) and incubated at 37° C. for two days. The cells were treated with various concentrations of VDR ligands (ten-fold serial dilution from 10,000 nM to 0.1 nM in triplicate), dissolved in 100 μl keratinocyte serum free medium supplemented with bovine pituitary extract in the absence of EGF and incubated at 37° C. for 72 hr. […] Potency values (IC50) values were determined as the concentration (nM) of compound that elicited a half-maximal response.

For a further data set, the target named is T2, VDR (Homo sapiens, UniProt P11473).
T2 construct: the receptor expression vector pGal-4-VDR-LBD (10 ng); expressed in transfected cells; host or cells: Caco-2 cells
T2 sequence (P11473 127-423 limits assumed): T1 sequence (P11473 127-423 limits assumed)
Nature of the data set: VDR CTF (Caco-2 cell co-transfection) assay. Type of data set: cell-based. As to conditions: Caco-2 cells, Gal-4-VDR-LBD co-transfection; Table 1. How it is done: 2. The Caco-2 Cell Co-transfection Assay:
The Caco-2 cell assay is an indicator for the undesirable condition of hypercalcemia. This co-transfection assay is a surrogate assay for in vivo calcemic activity of VDR ligands. […] Preferred assay results are greater than 1000 nM.
Step 4: FuGENE, DNA and Media Complex to-well plate • Add FuGENE-DNA-Media complex from step 3 to each plate • Incubate. […] Day 4: Luciferase Assay • Read the plates after drug treatment • Remove part of media from all the wells and leave remainder • Add Steady-Glo Luciferase Reagent mixture/wells • Incubate • Count each well using a Luminescence counter, Top Count NXT by Packard Set a delay between plates to reduce the background. (2) Materials and Method for The Caco-2 Cell Assay:
Caco-2 cells, grown in phenol red free, DMEM (Invitrogen, Carlsbad, Calif.) containing 10% charcoal-stripped FCS (Hyclone, Logan, Utah), were transfected with Fugene 6 reagent (Roche Diagnostics, Indianapolis, Ind.). Cells (5000/well) were plated 18 h before transfection in a 96 well plate. The Cells were transfected with Gal-4-responsive reporter pFRLuc (150 ng, Stratagene, La Jolla Calif.) and the receptor expression vector pGal-4-VDR-LBD (10 ng), along with Fugene 6 reagent (0.2 μl/well). The DNA-Fugene complex was formed by incubating the mixture for 30 min at room temperature. The cells were transfected in triplicate for 5 h, and treated with various concentrations of VDR ligands (form 0.01 nM to 10,000 nM concentration range) 18 h post-transfection. The luciferase activity was quantified using Steady-Glo reagent kit (Promega, Madison, Wis.) as per manufacturer's specifications.

The nature of data set [1]: Mouse hypercalcemia assay. As to conditions: six day hypercalcemia test, oral gavage, serum ionized calcium; Table 1.
Procedure: The Mouse Hypercalcemia Assay
(§1) The Mouse Hypercalcemia Assay is a six day hypercalcemia test for toxicity and selectivity. Acceptable test results are levels greater than 300 μg/kg/day. Preferred assay results are levels greater than 1000 μg/kg/day.
(§2) (4) Materials and Method for The Mouse Hypercalcemia Assay:
(§3) Weanling, virus-antibody-free, five to six weeks old female DBF mice (Harlan, Indianapolis, Ind.) are used for all the studies. Animals are allowed to acclimate to local vivarium conditions for 2 days. […] The animals then are divided into groups with 4-5 mice per group. Different doses of test compounds prepared in 10% Ethanol and 90% sesame oil are administered to mice orally via gavage for 6 days. 1α-25(OH)2D3 0.5 μg/kg/d was also given to one group of mice as the positive control. […] Raw data of group differences is assessed by analysis of variance (ANOVA) using Fisher's protected least significant difference (PLSD) where the significance level was P<0.05.
The conditions of data set [2]: in vivo, po.
Procedure: The Mouse Hypercalcemia Assay
as §1, §2, §3
In the next data set the test system is IL-10. Nature of the data set: IL-10 induction assay in PBMCs. Type of data set: cell-based. As to conditions: TPA/PHA stimulated human PBMCs. From the text: 6. The IL-10 induction Assay
This is an in vitro efficacy assay for psoriasis, abscess and adhesion. Psoriasis involves both keratinocytes and immune cells. IL-10 is a unique cytokine because it is anti-inflammatory and immunosuppressive. This assay tells us whether a VDRM is able to function as an agonist in PBMCs ([…]) or not.
(6) Materials and Method for human IL-10 Induction Assay: […]

Where [3] appears, read: 72 hr, Table 2, read-out: Kera. Prolif. IC50.
The mark [4] stands for this setting: Homo sapiens, Keratinocyte, 72 h, Table 2, read-out: Kera. Prolif. IC50.

One may read the EC50 as the concentration that produces a half-maximal response. For orientation: IC50 means the concentration at which inhibition is half-maximal. Take `CCc1cc(C(CC)(CC)c2ccc(C(=O)N(C)C)o2)ccc1OCC(O)C(C)(C)C` (single isomer, unassigned; enantiomer 2) [Ex. 11, 3′-[4-(2-hydroxy-3,3-dimethyl-butoxy)-3-ethylphenyl]-3′-[5-dimethylaminocarbonyl-2-furanyl]pentane enantiomer 2]: the half-maximal effective concentration (EC50) at RXR-VDR heterodimer worked out at 17.6 nM; in the data set with rat osteocalcin promoter it was 20 nM; on VDR, 572 nM. In addition, the IC50 with KERtr cells (setting [3]) is 18 nM. For the same molecule, the “Mouse Hypercal” value in data set [1] is over 3000 µg/kg/day.
For `CCC(C)c1cc(C(CC)(CC)c2ccc(C(=O)N(C)C)o2)ccc1OCC(=O)C(C)(C)C` (centres unmarked) [Ex. 5, 3′-[4-(2-oxo-3,3-dimethylbutoxy)-3-(2-butyl)phenyl]-3′-[5-dimethylaminocarbonyl-furan-2-yl]pentane], the EC50 on RXR-VDR heterodimer was 135 nM and 40 nM; in the data set on rat osteocalcin promoter it was 44 nM; in the data set with rat osteocalcin promoter (Rattus norvegicus, 48 h), 33 nM; at VDR, 129 nM. For the same molecule, the IC50 in the data set on KERtr cells (setting [4]) amounted to 1000 nM.
As for `CCC(CC)(c1ccc(OCC(=O)C(C)(C)C)c(C)c1)c1ccc(C(=O)N(C)C)o1` [Ex. 1, 3′-[4-(2-oxo-3,3-dimethylbutoxy)-3-methylphenyl]-3′-[5-dimethylaminocarbonyl-2-furanyl]pentane], the EC50 on RXR-VDR heterodimer was 3.3 nM and 0.6 nM; in the data set on rat osteocalcin promoter it was 3 nM; in the data set on rat osteocalcin promoter (Rattus norvegicus, 48 h), 5 nM; on VDR, 191 nM. The IC50 with KERtr cells (setting [4]) amounted to 15 nM. Moreover, the “Mouse Hypercal” value in data set [1] is over 1500 µg/kg/day.
As to `C=C1/C(=C\C=C2/CCC[C@]3(C)[C@@H]([C@H](C)CCCC(C)(C)O)CC[C@@H]23)C[C@@H](O)C[C@@H]1O` [AA, 1α,25-dihydroxyvitamin D3], the “Mouse Hypercal” value in data set [2] worked out at 0.06 µg/kg/day.
In the case of `C=C1/C(=C\C=C2/CCC[C@]3(C)[C@@H]([C@H](C)/C=C/[C@@H](O)C4CC4)CC[C@@H]23)C[C@@H](O)C[C@@H]1O` [FF, calcipotriol, reference compound], the IC50 worked out at 103 nM with KERtr cells (Homo sapiens, Keratinocyte, 72 h, Table 4 comparison compounds, read-out: Kera. Prolif. IC50) and 0.5 nM in the data set with IL-10 (PBMC, Table 4 comparison compounds).
For the molecule `CCc1cc(C(CC)(CC)c2ccc(C(=O)N(C)OC)o2)ccc1OCC(O)C(C)(C)C` (single isomer, unassigned; enantiomer 1) [Ex. 13, 3′-[4-(2-hydroxy-3,3-dimethyl-butoxy)-3-ethylphenyl]-3′-[5-N-methoxy-N-methylamino-carbonyl-2-furanyl]pentane enantiomer 1], the EC50 at RXR-VDR heterodimer turned out to be 18 nM; in the data set on rat osteocalcin promoter it was 20 nM; on VDR, 572 nM. For the same molecule, the results for the IC50 in the data set with KERtr cells (setting [3]) and with IL-10 (Table 2) were 18 nM and 4.6 nM, respectively. Besides, in data set [1], the “Mouse Hypercal” value is over 3000 µg/kg/day.
As for `CCN(C)C(=O)c1ccc(C(CC)(CC)c2ccc(OCC(O)C(C)(C)C)c(C)c2)o1` (centres unmarked) [Ex. 9, 3′-[4-(2-hydroxy-3,3-dimethyl-butoxy)-3-methylphenyl]-3′-[5-N-ethyl-N-methylamino-carbonyl-2-furanyl]pentane], the values for the EC50 at RXR-VDR heterodimer, in the data set on rat osteocalcin promoter and at VDR were 16 nM, 30 nM and 616 nM, respectively. Moreover, the half-inhibitory concentration (IC50) in the data set on KERtr cells (setting [3]) was 28 nM.

The values are drawn from patent US7468449B2, “Phenyl-furan compounds as vitamin D receptor modulators” (Eli Lilly and Company, priority 2003, dated 2008).
